Assay results from ChEMBL document CHEMBL1201862, “PubChem BioAssay data set” (2004).
Active and inactive are the calls of the source.

Experiments:
Vero [1] = assay: cells; assay type: functional; conditions: Chlorocebus sabaeus
Genome polyprotein = Genome polyprotein (dengue virus type 2, UniProt P29990); assay: Dengue-2 NS5 methyltransferase inhibitors, primary screen, biochemical, confirmation dose response (AID 588689); assay type: functional
[2] = Luminescent dose response cell-based high throughput screening assay for inhibitors of the Janus kinase 2 mutant JAK2V617F. [Related pubchem assays: 1446 (Primary screen.), 1521 (Confirmation assay.), 1486 (Counter screen.)]; assay type: functional
Vero [3] = assay: Vero cell cytotoxicity, cytotoxicity control for flavivirus capping enzyme inhibitors (AID 588742); assay type: functional; conditions: Chlorocebus sabaeus
[4] = Luminescence Cell-Based Dose Retest to Confirm Inhibitors of Cancer Stem Cells. [Related pubchem assays (depositor defined):AID2717, AID2721]; assay type: functional; conditions: Homo sapiens
Vero [5] = assay: host cell cytotoxicity of antiviral hits, dose response, cytotoxicity control for West Nile virus antiviral project, secondary assay (AID 1650); assay type: functional; conditions: Chlorocebus sabaeus
[6] = molecular target: T1, Heat shock factor protein 1 (Mus musculus, UniProt P38532); assay: HSF1 potentiators in luciferase reporter cells, confirmation, cell-based, NIH3T3, luminescence, dose retest (AID 435004); assay type: functional;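 also: stress induced by proteasome inhibitor MG132 added 30 min after compound; luciferase reporter driven by HSF1 response element in NIH3T3 cells; actives raise luminescence as potentiators of the MG132 stress response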
T1 sequence (P38532 whole entry): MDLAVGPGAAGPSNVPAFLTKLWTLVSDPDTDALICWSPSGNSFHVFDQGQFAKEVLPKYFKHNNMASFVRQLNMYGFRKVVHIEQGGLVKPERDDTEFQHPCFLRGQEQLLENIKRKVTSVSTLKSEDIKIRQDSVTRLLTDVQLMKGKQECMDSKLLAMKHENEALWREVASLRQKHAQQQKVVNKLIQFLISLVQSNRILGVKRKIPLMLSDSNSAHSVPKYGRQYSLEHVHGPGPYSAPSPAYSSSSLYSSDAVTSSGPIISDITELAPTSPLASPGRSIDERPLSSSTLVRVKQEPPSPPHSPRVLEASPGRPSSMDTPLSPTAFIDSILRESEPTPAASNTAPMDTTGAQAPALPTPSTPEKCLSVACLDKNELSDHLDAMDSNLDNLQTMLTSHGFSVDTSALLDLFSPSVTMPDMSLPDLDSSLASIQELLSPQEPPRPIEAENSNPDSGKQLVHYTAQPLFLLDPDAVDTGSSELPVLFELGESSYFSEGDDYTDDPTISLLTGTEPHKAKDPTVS

Vero [7] = assay: cells; assay type: functional, cell-based; conditions: Chlorocebus sabaeus
Protein RecA = molecular target: T2, Protein RecA (Mycobacterium tuberculosis, UniProt P9WHJ3); assay: Fluorescence Cell-Free Homogeneous Dose Retest to Identify Inhibitors of RecA-Intein Splicing Activity. [Related pubchem assays (depositor defined):AID2097, AID2223, AID489010, AID492950]; assay type: functional
T2 sequence (P9WHJ3 whole entry): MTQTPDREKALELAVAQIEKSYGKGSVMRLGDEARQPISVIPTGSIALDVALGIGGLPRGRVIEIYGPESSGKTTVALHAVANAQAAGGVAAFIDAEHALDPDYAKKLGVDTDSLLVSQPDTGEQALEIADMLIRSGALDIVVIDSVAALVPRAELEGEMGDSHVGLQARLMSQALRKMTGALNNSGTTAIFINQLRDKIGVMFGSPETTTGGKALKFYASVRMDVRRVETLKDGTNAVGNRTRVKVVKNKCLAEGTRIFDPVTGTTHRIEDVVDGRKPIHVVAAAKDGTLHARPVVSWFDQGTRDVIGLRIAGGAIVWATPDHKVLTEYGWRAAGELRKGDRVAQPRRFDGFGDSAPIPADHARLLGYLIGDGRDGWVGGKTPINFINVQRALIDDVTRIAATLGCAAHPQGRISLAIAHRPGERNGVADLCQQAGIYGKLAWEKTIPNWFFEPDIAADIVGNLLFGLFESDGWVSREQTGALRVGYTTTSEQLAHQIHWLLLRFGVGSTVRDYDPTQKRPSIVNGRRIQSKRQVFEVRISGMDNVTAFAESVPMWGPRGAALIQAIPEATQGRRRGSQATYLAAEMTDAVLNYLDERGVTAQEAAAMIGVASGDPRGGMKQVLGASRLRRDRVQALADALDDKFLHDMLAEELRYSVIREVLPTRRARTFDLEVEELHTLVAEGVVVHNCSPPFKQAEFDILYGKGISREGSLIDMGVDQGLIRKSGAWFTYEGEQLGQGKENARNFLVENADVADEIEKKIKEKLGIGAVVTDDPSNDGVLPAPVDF

[8] = molecular target: T3, Replicative DNA helicase DnaB (Mycobacterium tuberculosis, UniProt P9WMR3); assay: DnaB intein splicing inhibitors, dose response, biochemical, cell-free fluorescence (AID 449749); assay type: functional
T3 sequence (P9WMR3 whole entry): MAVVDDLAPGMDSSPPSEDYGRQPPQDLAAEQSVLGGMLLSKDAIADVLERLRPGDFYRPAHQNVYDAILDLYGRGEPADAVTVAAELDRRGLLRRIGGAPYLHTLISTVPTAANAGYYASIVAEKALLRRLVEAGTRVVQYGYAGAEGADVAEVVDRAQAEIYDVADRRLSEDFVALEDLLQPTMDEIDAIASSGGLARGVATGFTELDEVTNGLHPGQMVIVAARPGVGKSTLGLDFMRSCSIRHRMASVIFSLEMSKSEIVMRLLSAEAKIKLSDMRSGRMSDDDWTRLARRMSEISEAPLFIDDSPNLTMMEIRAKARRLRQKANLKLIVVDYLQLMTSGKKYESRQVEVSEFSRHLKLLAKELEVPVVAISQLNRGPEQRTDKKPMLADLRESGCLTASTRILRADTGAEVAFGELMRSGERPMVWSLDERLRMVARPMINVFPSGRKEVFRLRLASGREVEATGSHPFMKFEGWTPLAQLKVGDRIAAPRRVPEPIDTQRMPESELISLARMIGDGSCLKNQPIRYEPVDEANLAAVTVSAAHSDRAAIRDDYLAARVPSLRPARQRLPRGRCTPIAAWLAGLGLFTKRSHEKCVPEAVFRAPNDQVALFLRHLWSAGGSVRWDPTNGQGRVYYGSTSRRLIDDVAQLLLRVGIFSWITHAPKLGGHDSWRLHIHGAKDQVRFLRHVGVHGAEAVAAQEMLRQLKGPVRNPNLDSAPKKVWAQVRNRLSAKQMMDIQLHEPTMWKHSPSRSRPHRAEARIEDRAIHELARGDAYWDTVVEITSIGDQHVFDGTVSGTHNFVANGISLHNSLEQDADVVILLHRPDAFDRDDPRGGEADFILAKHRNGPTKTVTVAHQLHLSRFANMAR

[9] = Vero 76 cell cytotoxicity, dose response, cytotoxicity control, set 2 (AID 602240); assay type: functional; conditions: Venezuelan equine encephalitis virus
[10] = A Cell-Based Confirmatory Screen for Compounds that Inhibit VEEV, TC-83 (2).; assay type: functional
[11] = HEp-2 cell cytotoxicity, dose response, cytotoxicity control for RSV inhibitor project, HTS (AID 2410); assay type: functional; conditions: human respiratory syncytial virus
[12] = A Cell-Based Counter Screen testing Compounds that Inhibit VEEV TC-83, in strain KU V3526.; assay type: functional
[13] = molecular target: ATP-sensitive inward rectifier potassium channel 1 (Homo sapiens, UniProt P48048); assay: ROMK inhibition by analog compounds, SAR follow-up, cell-based, thallium flux, analog library (AID 435017); assay type: functional
[14] = Luminescence Cell-Based Dose Confirmation to Identify Activators of 5'UTR Stem-Loop Driven Alpha-Synuclein mRNA Translation in H4 Neuroglioblastoma Cells. [Related pubchem assays: 1829 (Project Summary), 1814 (Primary HTS)]; assay type: functional
[15] = Luminescence Cell-Based Dose Confirmation HTS to Identify Activators of 5'UTR Stem-Loop Driven Alpha-Synuclein mRNA Translation in H4 Neuroglioblastoma Cells. [Related pubchem assays: 1829 (Project Summary), 1814 (Primary HTS)]; assay type: functional
[16] = Luminescence Cell-Based Dose Response HTS to Identify Activators of Luciferase Translation or Activity in H4 […] Cells. [Related pubchem assays: 1829 (Project Summary), 1814 (Primary HTS)]; assay type: functional
[17] = Luminescence Cell-Based Dose Response to Identify Activators of Luciferase Translation or Activity in H4-C Neuroglioblastoma Cells. [Related pubchem assays: 1829 (Project Summary), 1814 (Primary HTS)]; assay type: functional
[18] = Luminescence Cell-Based Dose Response to Identify Activators of 5'UTR Stem-Loop Driven Prion Protein mRNA Translation in H4-C Neuroglioblastoma Cells. [Related pubchem assays: 1829 (Project Summary), 1814 (Primary HTS)]; assay type: functional
H4 = assay: Luminescence Cell-Based Dose Response HTS to Identify Activators of 5'UTR Stem-Loop Driven Prion Protein mRNA Translation in H4 Neuroglioblastoma Cells. [Related pubchem assays: 1829 (Project Summary), 1814 (Primary HTS)]; assay type: functional; conditions: Homo sapiens
[19] = M. tuberculosis growth inhibition, HTS (AID 449762); assay type: functional
[20] = A High Throughput Confirmatory Assay used to Identify Novel Compounds that Inhibit Mycobacterium Tuberculosis in the absence of Glycerol.; assay type: functional
[21] = M. tuberculosis H37Rv growth inhibitors, H37Rv strain (AID 1626); assay type: functional

Sequence of Genome polyprotein (P29990 2492-3391 limits assumed): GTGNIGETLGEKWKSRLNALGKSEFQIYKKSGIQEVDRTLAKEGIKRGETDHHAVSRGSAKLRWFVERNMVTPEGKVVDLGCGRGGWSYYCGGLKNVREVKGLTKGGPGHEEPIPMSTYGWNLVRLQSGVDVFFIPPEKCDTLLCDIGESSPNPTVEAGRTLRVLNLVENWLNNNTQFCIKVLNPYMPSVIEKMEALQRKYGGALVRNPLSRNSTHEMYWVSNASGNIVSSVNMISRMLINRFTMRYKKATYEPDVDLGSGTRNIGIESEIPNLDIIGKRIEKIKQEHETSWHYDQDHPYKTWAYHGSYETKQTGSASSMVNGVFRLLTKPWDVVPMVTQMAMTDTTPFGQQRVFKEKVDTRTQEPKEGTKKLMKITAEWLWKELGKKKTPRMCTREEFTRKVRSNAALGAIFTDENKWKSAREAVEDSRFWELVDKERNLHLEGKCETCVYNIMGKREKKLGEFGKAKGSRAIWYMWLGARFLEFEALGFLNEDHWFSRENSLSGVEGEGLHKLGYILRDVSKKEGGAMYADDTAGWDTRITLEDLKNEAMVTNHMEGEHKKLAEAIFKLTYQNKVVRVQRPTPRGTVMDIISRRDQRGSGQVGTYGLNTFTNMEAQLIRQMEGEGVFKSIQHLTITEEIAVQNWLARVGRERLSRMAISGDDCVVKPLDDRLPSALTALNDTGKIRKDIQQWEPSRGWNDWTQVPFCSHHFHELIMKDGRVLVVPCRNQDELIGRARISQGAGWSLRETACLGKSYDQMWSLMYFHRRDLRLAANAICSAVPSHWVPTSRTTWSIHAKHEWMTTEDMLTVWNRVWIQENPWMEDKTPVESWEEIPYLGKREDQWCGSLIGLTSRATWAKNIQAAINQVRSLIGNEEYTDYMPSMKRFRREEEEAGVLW
Sequence of ATP-sensitive inward rectifier potassium channel 1 (P48048 whole entry): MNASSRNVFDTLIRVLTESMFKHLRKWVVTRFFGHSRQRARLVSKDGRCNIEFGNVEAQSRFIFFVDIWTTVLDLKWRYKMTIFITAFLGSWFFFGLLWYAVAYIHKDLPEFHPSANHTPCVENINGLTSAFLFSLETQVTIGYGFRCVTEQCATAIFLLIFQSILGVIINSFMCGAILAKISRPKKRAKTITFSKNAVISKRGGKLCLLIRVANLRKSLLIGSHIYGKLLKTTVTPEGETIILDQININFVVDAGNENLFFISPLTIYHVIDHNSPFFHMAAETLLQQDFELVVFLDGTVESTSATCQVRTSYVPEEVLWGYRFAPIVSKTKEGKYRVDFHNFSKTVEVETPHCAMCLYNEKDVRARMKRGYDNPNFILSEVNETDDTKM

**Q.** For Cc1ccc(NC(=O)C(=Cc2ccc(C(=O)O)cc2)C(=O)Nc2ccc(C)cc2C)c(C)c1, which CC50 (Vero [1]) is on record?
**A.** 9.83 µM (active)

**Q.** And the IC50 (Genome polyprotein)?
**A.** > 100 µM (active)

**Q.** What about the IC50 [2] of the same compound?
**A.** 1.95 µM (active)

**Q.** What about the CC50 (Vero [3]) of the same compound?
**A.** 27.3 µM (active)

**Q.** What about the AC50 [4] of the same compound?
**A.** 1.9 µM (active)

**Q.** What about the CC50 (Vero [5]) of the same compound?
**A.** 7.51 µM (active)

**Q.** What about the EC50 [6] of the same compound?
**A.** 6.71 µM (active)

**Q.** And the IC50 (Vero [7])?
**A.** 19.6 µM (active)

**Q.** And the EC50 (Protein RecA)?
**A.** 3.21 µM (active)

**Q.** What about the AC50 [8] of the same compound?
**A.** 2.51 µM (active)

**Q.** For O=C(Cc1cccs1)Nc1nc2c(s1)CCCC2, which CC50 [9] is on record?
**A.** > 50 µM (active)

**Q.** And the CC50 (Vero [1])?
**A.** > 25 µM (active)

**Q.** And the IC50 (Vero [7])?
**A.** 6.38 µM (active)

**Q.** And the IC50 (cells)?
**A.** 10 µM (active)

**Q.** And the IC50 [10]?
**A.** 7.09 µM (active)

**Q.** What about the CC50 [11] of the same compound?
**A.** 17.2 µM (active)

**Q.** And the IC50 [12]?
**A.** 4.71 µM (active)

**Q.** For COc1ccc([N+](=O)[O-])cc1CN1CCOCCOCCN(Cc2ccc([N+](=O)[O-])cc2OC)CCOCC1, which IC50 [13] is on record?
**A.** 1.5 µM (active)

**Q.** With NNc1nc2c(F)cccc2s1 as the compound, how does the EC50 [14] read?
**A.** > 12 µM (not active)

**Q.** And the EC50 [15]?
**A.** < 100 nM (active)

**Q.** What about the EC50 [16] of the same compound?
**A.** 5.67 µM (active)

**Q.** And the EC50 [17]?
**A.** > 12 µM (not active)

**Q.** What about the EC50 [18] of the same compound?
**A.** > 12 µM (not active)

**Q.** And the EC50 (H4)?
**A.** > 120 µM (not active)

**Q.** With O=c1c2ccccc2nc(/C=C/c2ccccc2)n1-c1ccc(O)cc1 as the compound, how does the IC50 [19] read?
**A.** > 100 µM (active)

**Q.** And the IC50 [20]?
**A.** > 50 µM (active)

**Q.** With CCc1ccc(Nc2c([N+](=O)[O-])c(=O)oc3ccccc23)cc1 as the compound, how does the IC50 [21] read?
**A.** > 100 µM (active)
